Results taken from US20090149551A1 (priority 2007, published 2009).
Where two headings read alike, the source gives them in different places.

What was measured:
[1] = target: T1, recombinant human P450 3A4 (Homo sapiens, UniProt P08684); assay: Vivid P450 3A4 activity assay with NADPH regenerating system; format: biochemical; conditions: for decrease of P450 3A4 activity: 2 μM DBOMF
T1 construct: purchased Invitrogen (Carlsbad, Calif.)
Protocol: (§1) The Vivid® P450 3A4 activity assay was carried out according to the manufacturer's protocol. Briefly, water (30 μL) and solutions of HCT (10 μL) were added to wells of a 96-well black plate. Master pre-mix solutions (50 μL) containing recombinant human P450 3A4 and rabbit NADPH P450 reductase were then added, and the resulting solutions were equilibrated at room temperature for 20 min. Finally, 10 μL of mixed NADP^+ and DBOMF substrate solutions were added, and the fluorescence intensity over time was recorded with a fluorometer at the excitation and emission wavelengths of 485 and 535 nm, respectively. The final concentrations were 100 mM phosphate buffer (pH 8.0), 3.3 mM glucose-6-phosphate, 0.3 unit/mL glucose-6-phosphate dehydrogenase, 1.0 mM NADP^+, 2 μM DBOMF and 5 nM P450 3A4 with 0.1% DMSO. Control experiments included no DBOMF as the background and 1 μM ketoconazole as the positive control. The rates of the P450 activity were obtained from the slope of the change of the fluorescent intensity over the initial 8 min.
(§2) Enzyme and Cellular Studies with OHCT. The inhibitory effect of OHCT on P450 3A4 and the metabolic conversion of AFB1 with liver microsomes were studied similarly as described for HCT. […] The P450 activity was carried out similarly as described above with concentrations of DBOMF at 0.50, 0.67, 1.0, and 2.0 μM, respectively. The rates of the P450 activity were obtained as the slope of the change of the fluorescent intensity over the initial 4 min. The inhibitory constants of OHCT were obtained from the global best fit of the mixed inhibition model by GraphPad Prism (version 4.00, GraphPad Software, San Diego, Calif.).

[2] = Stability in solution by HPLC analysis; format: physicochemical
Protocol: 4b,5,6,7,8,8a-cis-Hexahydro-2-hydroxy-4b,8,8a-trimethylphenanthren-9,10-dione (OHCT). Spontaneous oxidation of HCT to OHCT was carried out in 100 mM phosphate buffer (pH 7.4) and 1.0 mM HCT in 10% acetonitrile. […]

[3] = tested on: pooled human liver microsomes
[4] = tested on: human HepG2 cells; conditions: HepG2, co-treatment with AFB1; Zhou et al. 2006; cited from earlier work
[5] = tested on: P450 1A/1B; conditions: HepG2, co-treatment with TCDD; cited from earlier work
[6] = tested on: human HepG2 cells; format: cell-based; conditions: for chemoprotection against AFB1 induced cytotoxicity: 2 μM AFB1, HepG2
Protocol: The cell viability MTT assay on human HepG2 cells was carried out as previously reported. Briefly, HepG2 cells were seeded at 30,000 cells/well on a 96 well plate for 4 h before the treatment with AFB1 and OHCT or ketoconazole. After incubation for 72 h, the MTT assay was performed, followed by obtaining the absorbance of each well at 570 nm with a plate reader (μQuant, BioTek Instruments, Vt.). The statistical analyses (one-way ANOVA with Dunnett's test) were performed by GraphPad Prism.

[7] = tested on: P. falciparum clone Dd2; format: cell-based, Plasmodium falciparum
Protocol: Cultures of Plasmodium falciparum.
In vitro antiplasmodial activity: All solutions of chloroquine diphosphate, artemisinin (Sigma Aldrich), and OHCT were prepared in media RPMI 1640, ethanol and 0.1% DMSO, respectively. […] Parasite growth was estimated by microscopic observation of Giemsa-stained blood smears. All results presented are the means of at least three independent experiments.
OHCT action on specific parasite life cycle stages: P. falciparum cultures were synchronized with 5% sorbitol and the Percoll-Sorbitol methods. Dilutions of OHCT, chloroquine, and artemisinin were prepared. To determine the in vitro efficacies of the three antimalarial drugs in culture, serial dilutions were prepared: for artemisinin, chloroquine and OHCT at 2, 4, 8, 16, 32 and 40 μM, respectively. After synchronization, the parasites were plated at the ring stage in 96-well plates. Each plate corresponded to one of the successive 6-h periods of the P. falciparum life cycle.

[8] = Toxicity in mice receiving OHCT; conditions: administration over four days, observed three months after administration
[9] = tested on: human liver or lung cells; assay: Toxicity to human liver or lung cells in culture
[10] = target: T2, CYP3A4 (P450 3A4) (Homo sapiens, UniProt P08684); assay: Vivid P450 3A4 activity assay with NADPH regenerating system; format: biochemical; conditions: human, recombinant human P450 3A4 with rabbit NADPH P450 reductase, pH 8, probe DBOMF 2 μM; 1 μM, 2 μM DBOMF; read-out: inhibition of the enzyme activity (P450 3A4)
T2 construct: purchased Invitrogen (Carlsbad, Calif.)
Protocol: as §1, §2

[11] = 40 μM, 50 μM AFB1, NADPH regenerating system, 37° C. 90 min
[12] = mixed inhibition model, global best fit, substrate DBOMF

T1 sequence (P08684 whole entry): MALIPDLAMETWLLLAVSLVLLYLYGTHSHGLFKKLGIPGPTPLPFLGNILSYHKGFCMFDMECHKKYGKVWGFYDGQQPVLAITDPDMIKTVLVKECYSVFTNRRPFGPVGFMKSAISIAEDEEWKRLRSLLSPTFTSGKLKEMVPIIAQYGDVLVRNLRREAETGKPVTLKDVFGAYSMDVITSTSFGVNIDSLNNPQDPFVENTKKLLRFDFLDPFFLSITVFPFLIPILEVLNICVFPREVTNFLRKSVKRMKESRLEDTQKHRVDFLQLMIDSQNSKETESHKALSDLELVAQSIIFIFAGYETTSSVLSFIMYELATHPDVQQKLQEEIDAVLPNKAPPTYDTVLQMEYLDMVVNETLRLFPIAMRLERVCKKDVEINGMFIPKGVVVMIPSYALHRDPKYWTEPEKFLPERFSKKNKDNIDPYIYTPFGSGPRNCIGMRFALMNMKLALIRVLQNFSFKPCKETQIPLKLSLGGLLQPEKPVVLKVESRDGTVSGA
T2 sequence (P08684 whole entry): as above

Which “decrease of P450 3A4 activity” value ([1]; 10 μM) does the source give for 2-hydroxy-cis-terpenone [HCT] here?
Its value is about 30%.

And the “decrease of P450 3A4 activity” value ([1]; 20 μM)?
Its value is about 50%.

And the “decrease of P450 3A4 activity” value ([1]; 40 μM)?
The value was about 70%.

And the IC50 ([1]; purified P450 3A4, read-out: IC50, inhibition of purified P450 3A4 enzyme activity)?
Its IC50 is 20 µM.

What about the “stability in the phosphate buffer and in the AFB1 metabolic study” value ([2]; 100 mM phosphate buffer pH 7.4, 37° C.) of the same compound?
Its value is “slow degradation”.

What about the “stability of stock solutions” value ([2]; acetonitrile, −15° C., several weeks) of the same compound?
Its value is “no significant degradation”.

And the “inhibition of the metabolic conversion of AFB1 in liver microsomes” value [3, 11]?
The value was “effective inhibition”.

What about the “inhibition of the α-NF stimulated production of exo-AFB1-epoxide” value ([3]; 40 μM, with 50 μM α-NF) of the same compound?
The value was “consistently inhibited”.

What about the “inhibition of the carcinogenic conversion of AFB1 with liver microsomes” value ([3]; 10, 20, 40 μM) of the same compound?
Its value is “inhibited by HCT in a concentration dependent manner”.

And the “effect of co-treatment on AFB1 induced cytotoxicity including DNA damage and cell death” value [4]?
Its value is “reduced AFB1 induced cytotoxicity”.

And the “effect on TCDD induced P450-1 activity” value [5]?
The value was “inhibited”.

Which “decrease of P450 3A4 activity” value ([1]; 20 μM) does the source give for `CC1CCCC2(C)c3ccc(O)cc3C(=O)C(=O)C12C` (stereo not drawn) [OHCT, 4b,5,6,7,8,8a-cis-Hexahydro-2-hydroxy-4b,8,8a-trimethylphenanthren-9,10-dione] here?
The value was 50%.

What about the “Ki (disassociation constant of enzyme inhibitor complex)” value [1, 12] of the same compound?
The value was 17.6 ± 5.6 µM.

And the “Ki′ (disassociation constant of enzyme-substrate inhibitor complex)” value [1, 12]?
The value was 7.6 ± 1.5 µM.

And the “cytotoxicity of the compound alone” value ([6]; 60 μM alone, HepG2)?
The value was “no cytotoxicity”.

And the “cell viability on co-treatment with AFB1” value ([6]; 60 μM, 2 μM AFB1, HepG2, 72 h, MTT)?
Its value is “more than 90%”.

And the “chemoprotection against AFB1 induced cytotoxicity” value ([6]; 40 and 60 μM)?
Its value is “effective chemoprotection”.

And the “activity against the gametocyte forms of the parasite” value ([7]; 2 μM)?
Its value is “active”.

And the decrease of parasitemia ([7]; 16 μM, 8 h, clone Dd2)?
Its decrease of parasitemia is 50%.

What about the “killing of chloroquine resistant clone Dd2” value ([7]; 24 hr following treatment, concentration dependent) of the same compound?
Its value is “killed”.

And the “inhibition of early ring, trophozoite and schizont stages” value ([7]; clone Dd2, 24 hr)?
Its value is “equally inhibited”.

And the “stability under aqueous conditions” value ([2]; 72 h at 37° C., HPLC)?
The value was “no degradation”.

And the “inhibition of the metabolic conversion of AFB1 in liver microsomes” value [3, 11]?
Its value is “inhibition of both GSH-AFB1 adducts and aflatoxin Q1”.

And the “stability under aqueous conditions and in the metabolic study of liver microsomes” value ([3]; liver microsomes, HPLC)?
The value was “no degradation”.

And the “signs of toxicity in mice” value [8]?
The value was “no signs of toxicity”.

What about the “toxicity to human liver or lung cells in culture” value [9] of the same compound?
The value was “no toxicity”.

With `CC(C)CCC[C@@H](C)[C@H]1CC[C@H]2[C@@H]3CC=C4C[C@@H](O)CC[C@]4(C)[C@H]3CC[C@]12C` [cholesterol, reference compound] as the compound, how does the “inhibitory effect on the metabolic conversion of AFB1 in liver microsomes” value ([3]; up to 100 μM) read?
The value was “no inhibitory effect”.

Which results are given for `CC(=O)N1CCN(c2ccc(OCC3COC(Cn4ccnc4)(c4ccc(Cl)cc4Cl)O3)cc2)CC1` (stereo not shown) [ketoconazole, reference compound]?
inhibition at 8 min, 1 μM [10]: > 90%; cell mortality, compound alone ([6]; 20 μM alone, HepG2): 20%; chemoprotection against AFB1 induced cytotoxicity ([6]; 10 and 20 μM): observed; inhibition of the α-NF stimulated production of exo-AFB1-epoxide [3]: consistently inhibited; inhibition of the metabolism of AFB1 in liver microsomes ([3]; 1 μM, 50 μM AFB1, NADPH regenerating system, 37° C. 90 min): same extent as 40 μM HCT

Which “decrease of aflatoxin Q1 versus no α-NF” value ([3]; 50 μM) does the source give for `O=c1cc(-c2ccccc2)oc2c1ccc1ccccc12` [α-NF, α-naphthoflavone, reference compound] here?
Its value is 6 fold.

What about the “increase of the amount of GSH-AFB1 adducts versus no α-NF” value ([3]; 50 μM) of the same compound?
Its value is 2.3 folds.
